Strand notation (5' to 3'): a small letter for the sugar, then the base; units joined by * are phosphorothioate-linked, units joined directly phosphodiester-linked; [ ] holds rarer units or linkages, { } end groups; capitals alone tell only the bases. e = 2'-O-(2-methoxyethyl) (MOE); [5mC] = 5-methylcytosine; d = 2'-deoxy (DNA)
Test system: human SMAD7 mRNA
Experiment: Antisense inhibition of human SMAD7 mRNA expression in Hep3B cells by 5-10-5 MOE gapmers, single concentration, electroporation, RT-PCR (Example 1, Study 1 and 2)
Assay type: cell-based
Conditions: for % Inhibition: Study 2, electroporation with 15,000 nM antisense oligonucleotide; for % Inhibition of SMAD7 mRNA: electroporation with 15,000 nM antisense oligonucleotide (Study 2)
Outline: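 Readout is percent SMAD7 mRNA inhibition versus untreated cells, measured by qRT-PCR (RTS5062) and corrected for total RNA by RIBOGREEN. Oligonucleotide, 5,000 nM or 15,000 nM, was delivered by electroporation into Hep3B cells at 20,000 per well. RNA was collected about 24 h later.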

[1] = 5-10-5 MOE gapmers targeting SEQ ID NO: 1 and 2
[2] = electroporation, 5,000 nM, approximately 24 hours, relative to untreated control cells, gapmers targeting SEQ ID NO: 1 and 2
[3] = electroporation, 15,000 nM, approximately 24 hours, relative to untreated control cells, gapmers targeting SEQ ID NO: 1 and 2
[4] = electroporation, 15,000 nM antisense oligonucleotide (Study 2), 5-10-5 MOE gapmers targeting SEQ ID NO: 1 and 2

Substance | % Inhibition [1] | % inhibition of SMAD7 mRNA expression [4] | further results
771775 (antisense eA*eA*eT*eG*e[5mC]*d[5mC]*dA*dA*dA*dT*dG*d[5mC]*d[5mC]*d[5mC]*dA*eA*eA*eA*e[5mC]*eT) [compound 771775] | 41% |  | 
771779 (antisense eA*e[5mC]*eA*e[5mC]*eA*d[5mC]*dT*dG*d[5mC]*dT*dG*d[5mC]*d[5mC]*dT*dT*eT*eT*e[5mC]*eT*e[5mC]) [compound 771779] | 33% |  | % inhibition of SMAD7 mRNA expression [2]: 53%
771780 (antisense eA*e[5mC]*eA*eA*eA*d[5mC]*d[5mC]*dT*dT*d[5mC]*d[5mC]*dG*dA*dA*dA*eG*eG*eA*e[5mC]*e[5mC]) [compound 771780] | 20% |  | 
771781 (antisense eA*eA*eA*eA*eA*dA*dA*dG*d[5mC]*d[5mC]*d[5mC]*dA*d[5mC]*d[5mC]*d[5mC]*eA*eT*e[5mC]*eG*eG) [compound 771781] |  |  | % inhibition of SMAD7 mRNA expression [3]: 10%
771783 (antisense e[5mC]*e[5mC]*e[5mC]*eT*eT*d[5mC]*dA*dG*dA*dG*dA*dG*dT*d[5mC]*dA*e[5mC]*eT*eG*e[5mC]*eT) [compound 771783] | 49% |  | 
771784 (antisense eT*eA*eA*eA*eT*d[5mC]*dA*dA*dG*dA*dG*d[5mC]*dT*dG*dA*eA*eA*eT*eT*e[5mC]) [compound 771784] |  | 0% | % Inhibition of SMAD7 mRNA [1]: 1%
771785 (antisense eA*e[5mC]*eT*eT*eT*dG*dA*dA*dG*d[5mC]*d[5mC]*dT*dT*dT*dG*eG*eA*eA*eT*eT) [compound 771785] |  | 12% | 
771787 (antisense eA*eA*eG*eA*eA*dG*dA*dA*dG*dG*dA*dG*d[5mC]*dT*d[5mC]*eA*eA*eA*e[5mC]*eT) [compound 771787] | 27% |  | % inhibition of SMAD7 mRNA expression [2]: 0%
771789 (antisense e[5mC]*e[5mC]*e[5mC]*eA*eA*dA*dA*d[5mC]*dA*dG*dT*dG*dT*dA*d[5mC]*e[5mC]*e[5mC]*eT*e[5mC]*e[5mC]) [compound 771789] |  |  | % inhibition of SMAD7 mRNA expression [3]: 30%
771790 (antisense e[5mC]*eA*eA*eA*eA*d[5mC]*dT*d[5mC]*dT*d[5mC]*dT*dG*d[5mC]*d[5mC]*d[5mC]*eT*eG*eG*eA*e[5mC]) [compound 771790] | 36% |  | 
771791 (antisense eG*eA*eG*eG*eA*dG*dG*dG*dA*dG*dA*dA*dA*d[5mC]*dT*e[5mC]*e[5mC]*eT*e[5mC]*eA) [compound 771791] | 22% |  | 
771792 (antisense eA*eG*e[5mC]*eA*e[5mC]*dA*d[5mC]*d[5mC]*d[5mC]*d[5mC]*dA*d[5mC]*d[5mC]*d[5mC]*d[5mC]*e[5mC]*eA*e[5mC]*e[5mC]*eT) [compound 771792] |  | 2% | % Inhibition of SMAD7 mRNA [1]: 33%
771796 (antisense eG*eT*eT*eT*eG*d[5mC]*dG*d[5mC]*dA*d[5mC]*dG*dG*dG*dA*dT*eT*eG*eT*e[5mC]*eT) [compound 771796] | 16% |  | 
771798 (antisense eG*eA*e[5mC]*eA*e[5mC]*dA*dT*d[5mC]*d[5mC]*dA*dT*dG*dT*d[5mC]*d[5mC]*eA*eA*eG*e[5mC]*eA) [compound 771798] | 17% |  | 
771800 (antisense eG*eA*e[5mC]*eA*eG*d[5mC]*dA*dG*dA*d[5mC]*dA*dG*dG*d[5mC]*dA*eA*eA*eA*eT*eG) [compound 771800] |  | 12% | % Inhibition of SMAD7 mRNA [1]: 32%
771801 (antisense eA*e[5mC]*e[5mC]*eT*eA*d[5mC]*dA*dA*d[5mC]*dT*d[5mC]*dA*d[5mC]*dA*dA*eG*eG*eG*eA*eG) [compound 771801] |  | 31% | 
771802 (antisense e[5mC]*e[5mC]*eT*eT*eG*dA*dG*dA*dT*d[5mC]*d[5mC]*dA*dT*dG*dG*eG*eA*eG*e[5mC]*eA) [compound 771802] |  | 40% | 
771803 (antisense eA*eT*eG*eG*eA*dT*dA*d[5mC]*dT*dG*dA*d[5mC]*dT*d[5mC]*dA*eA*eG*eG*eA*e[5mC]) [compound 771803] | 39% |  | % inhibition of SMAD7 mRNA expression [2]: 22%
771804 (antisense eG*eA*e[5mC]*eA*eG*dA*dT*dG*d[5mC]*d[5mC]*dA*dG*d[5mC]*dA*dA*eG*eG*eA*eT*e[5mC]) [compound 771804] | 17% |  | 
771805 (antisense eG*eA*eT*eT*eA*dT*dA*dT*dA*dG*dG*dT*dA*dT*dT*eT*eT*eT*eG*eA) [compound 771805] |  |  | % inhibition of SMAD7 mRNA expression [3]: 0%
771806 (antisense eA*e[5mC]*eA*eA*eT*dG*dA*dA*dT*dA*dA*dT*dT*dG*dT*eT*e[5mC]*eA*e[5mC]*eG) [compound 771806] | 0% |  | 
771807 (antisense eG*e[5mC]*e[5mC]*e[5mC]*eT*d[5mC]*dA*d[5mC]*dT*d[5mC]*d[5mC]*dA*d[5mC]*dA*dA*eT*eG*eG*e[5mC]*eA) [compound 771807] | 51% |  | 

Substance | % Inhibition [1] | % inhibition of SMAD7 mRNA expression [4] | further results
771809 (antisense eA*e[5mC]*e[5mC]*eT*eG*dA*dG*dT*d[5mC]*d[5mC]*d[5mC]*d[5mC]*d[5mC]*dA*dA*eA*eG*eT*e[5mC]*e[5mC]) [compound 771809] |  | 7% | 
771810 (antisense eG*eG*e[5mC]*eA*e[5mC]*dT*dG*d[5mC]*dA*dG*dA*dA*dG*dA*dG*eG*e[5mC]*eG*eG*eG) [compound 771810] |  | 46% | 
771811 (antisense eT*eG*e[5mC]*e[5mC]*eT*d[5mC]*dA*dT*dT*d[5mC]*dT*dT*dT*d[5mC]*d[5mC]*eA*eG*eG*eA*e[5mC]) [compound 771811] | 50% |  | % inhibition of SMAD7 mRNA expression [2]: 48%
771812 (antisense eT*eT*eA*eA*e[5mC]*d[5mC]*d[5mC]*d[5mC]*dT*dG*d[5mC]*d[5mC]*dG*dG*dA*e[5mC]*eT*eG*e[5mC]*e[5mC]) [compound 771812] | 26% |  | 
771813 (antisense eT*e[5mC]*eT*eT*eG*dT*d[5mC]*dT*dG*dG*d[5mC]*d[5mC]*dG*dG*d[5mC]*eA*eG*eA*eG*e[5mC]) [compound 771813] |  |  | % inhibition of SMAD7 mRNA expression [3]: 38%
771814 (antisense eT*e[5mC]*e[5mC]*e[5mC]*eT*dT*dT*dG*d[5mC]*dT*dG*dG*d[5mC]*d[5mC]*d[5mC]*eA*eG*eT*eT*e[5mC]) [compound 771814] | 39% |  | 
771816 (antisense eA*eT*e[5mC]*e[5mC]*eA*dA*d[5mC]*dT*dA*d[5mC]*dT*d[5mC]*dA*dG*dA*eG*eG*e[5mC]*eT*eG) [compound 771816] |  | 27% | % Inhibition of SMAD7 mRNA [1]: 28%
771817 (antisense eG*eG*eA*eA*eT*dT*dA*dT*dG*dA*d[5mC]*dA*d[5mC]*dA*dG*eT*eA*eA*e[5mC]*eA) [compound 771817] |  | 19% | 
771818 (antisense eT*eG*eA*eA*eG*dA*d[5mC]*dA*dA*d[5mC]*dT*dG*d[5mC]*dT*dT*eT*eG*eA*eG*eA) [compound 771818] |  | 38% | 
771819 (antisense eA*eA*eT*eA*eG*dT*dT*dT*dT*d[5mC]*dT*d[5mC]*dT*d[5mC]*dA*eA*eA*eT*eG*eT) [compound 771819] | 20% |  | % inhibition of SMAD7 mRNA expression [2]: 56%
771823 (antisense e[5mC]*eT*eT*e[5mC]*e[5mC]*d[5mC]*dA*dT*dG*dT*dG*dA*d[5mC]*d[5mC]*dT*e[5mC]*eA*eG*eG*eG) [compound 771823] | 49% |  | 
771824 (antisense eT*eT*e[5mC]*eT*eA*d[5mC]*dT*dA*dG*dA*dA*dA*dA*dA*dA*eA*eT*eT*eA*eG) [compound 771824] |  | 0% | % Inhibition of SMAD7 mRNA [1]: 3%
771826 (antisense e[5mC]*eA*e[5mC]*e[5mC]*eA*dT*d[5mC]*d[5mC]*dT*dG*dG*dT*dT*d[5mC]*dG*e[5mC]*eA*eG*eT*e[5mC]) [compound 771826] |  | 31% | 
771827 (antisense eA*eA*eG*eG*eA*d[5mC]*dA*dT*d[5mC]*dA*d[5mC]*dA*dG*dG*dG*eA*e[5mC]*eT*eG*eG) [compound 771827] | 33% |  | % inhibition of SMAD7 mRNA expression [2]: 31%
771828 (antisense eG*e[5mC]*e[5mC]*e[5mC]*eT*dA*dG*dA*dA*d[5mC]*dT*dT*dG*dG*dG*e[5mC]*eA*eA*eG*eG) [compound 771828] | 8% |  | 
771829 (antisense eT*eG*eT*eG*e[5mC]*d[5mC]*dT*d[5mC]*dA*dG*d[5mC]*dA*dG*dT*dT*eA*eA*eT*eA*eA) [compound 771829] |  |  | % inhibition of SMAD7 mRNA expression [3]: 14%
771830 (antisense eT*eT*eT*eA*eG*dG*dT*dA*dG*dA*dG*dT*dG*dG*d[5mC]*e[5mC]*eG*eG*eG*eA) [compound 771830] | 40% |  | 
771832 (antisense eA*e[5mC]*e[5mC]*eT*eT*dT*d[5mC]*dA*d[5mC]*dG*dA*dA*d[5mC]*d[5mC]*dA*e[5mC]*eT*eT*eT*eT) [compound 771832] |  | 11% | % Inhibition of SMAD7 mRNA [1]: 31%
771833 (antisense eT*eT*eA*eA*eA*dG*dA*dA*dA*dA*dT*dG*dG*d[5mC]*d[5mC]*eT*eA*e[5mC]*eA*eT) [compound 771833] |  | 21% | 
771834 (antisense eA*eA*e[5mC]*eA*eT*dA*dA*dA*dG*dT*dT*d[5mC]*dT*d[5mC]*dA*eA*eA*e[5mC]*eA*eG) [compound 771834] |  | 25% | 
771835 (antisense eA*eG*eT*eA*eA*dA*dA*dT*dG*dG*dG*dA*dA*dA*dT*eA*eA*eG*eG*e[5mC]) [compound 771835] | 5% |  | % inhibition of SMAD7 mRNA expression [2]: 17%

— patent publication US10517889B2, “Modulators of SMAD7 expression” (Ionis Pharmaceuticals, Inc., priority 2017, dated 2019)
